Experimental data from PMC6264777, “New Catechol Derivatives of Safrole and Their Antiproliferative Activity towards Breast Cancer Cells” (Molecules, 2011).
Like-named read-outs stand apart in the source and are kept apart here.

Columns and labels:
various human cell types = conditions: cited from earlier work
[1] = system: dermal human fibroblast cells (DHF); assay: cells; assay type: cell-based; conditions: for IC50: read-out: IC50 DHF
MCF-7 cells = assay: Sulforhodamine B in vitro growth inhibition assay, MCF-7; assay type: cell-based, human; conditions: read-out: IC50 (μM) MCF-7
Experimental: (§1) IC50 values of compounds 3-11, safrole, catechol 2 and the reference compound daunorubicin are summarized in Table 1 as the micromolar concentration that produces 50% cell growth inhibition after 72 hours of drug exposure.
(§2) The experimental cell cultures were obtained from American Type Culture Collection (Rockville, MD, USA). MCF-7, MDA-MB-231 cells were grown in DMEM-F12 medium containing 10% FCS, 100 U/mL penicillin, 100 µg/mL streptomycin and 1 mM glutamine. Cells are seeded into 96 well microtiter plates in 100 µL at plating density of 3 × 10^3 cells/well. After 24 h incubation at 37 °C (under a humidified 5% carbon dioxide to allow cell attachment) the cells were treated with different concentrations of drugs (safrole and derivatives) and incubated for 72 h under the same conditions. Stock solution of compounds was prepared in ethanol and the final concentration of this solvent was kept constant at 0.1%. Control cultures received 0.1% ethanol alone.
(§3) The sulforhodamine B assay according to the method of Skehan et al. was used with some modifications. Briefly, the cells were set up 3 × 10^3 cells per well of a 96-well, flat-bottomed 200 μL microplate. Cells were incubated at 37 °C in a humidified 5% CO2/95% air mixture and treated with the compounds at different concentrations for 72 hours. At the end of drug exposure, cells were fixed with 50% trichloroacetic acid at 4 °C (TCA final concentration 10%). After washing with destilled water, cells were stained with 0.1% sulforhodamine B (Sigma-Aldrich, St. Louis, MO, USA), dissolved in 1% acetic acid (50 µL/well) for 30 min, and subsequently washed with 1% acetic acid to remove unbound stain. Protein-bound stain was solubilized with 100 µL of 10 mM unbuffered Tris base. The cell density was determined using a […] plate reader (wavelength 540 nm). Values shown are the mean + SD three independent experiments in triplicate.

MDA-MB-231 cells = assay: Sulforhodamine B in vitro growth inhibition assay, MDA-MB-231; assay type: cell-based, human; conditions: read-out: IC50 (μM) MDA-MB-231
Experimental: as §1, §2, §3

[2] = Homo sapiens, Fibroblast, 50% cell growth inhibition after 72 hours of drug exposure, SRB, non-tumoral cells
[3] = Homo sapiens, MCF7, 50% cell growth inhibition after 72 hours of drug exposure, SRB, mean ± SD, three independent experiments in triplicate
[4] = Homo sapiens, MDA-MB-231, 50% cell growth inhibition after 72 hours of drug exposure, SRB, mean ± SD, three independent experiments in triplicate
[5] = 50% cell growth inhibition after 72 hours of drug exposure, SRB, mean ± SD, three independent experiments in triplicate

Row | Compound | IC50 [1, 2] [µM] | IC50 (MCF-7 cells; [3]) [µM] | IC50 (MDA-MB-231 cells; [4]) [µM] | further results
1 | C=CCc1ccc2c(c1)OCO2 [safrole, Safrole] |  |  |  | concentrations at which safrole becomes cytotoxic (various human cell types): 5000 to 10000 µM; IC50 ([1]; Homo sapiens, Fibroblast, 72 h): > 100 µM; IC50 (MCF-7 cells; Homo sapiens, MCF7, 72 h): > 100 µM; IC50 (MDA-MB-231 cells; Homo sapiens, MDA-MB-231, 72 h): > 100 µM
2 | C=CCc1ccc(OC(C)=O)c(OC(C)=O)c1 [Compound 4, 4-allyl-1,2-phenylene diacetate] | > 100 | > 100 | 54.7 ± 6.6 | 
3 | O=[N+]([O-])c1cc(O)c(O)cc1CCCO [Compound 8, 4-(3-hydroxypropyl)-5-nitrobenzene-1,2-diol] | > 100 | 78.2 ± 8.9 | 57.3 ± 4.1 | 
4 | 4-allyl-1,2-phenylene diacetate [Compound 7] |  |  |  | IC50 ([1]; 50% cell growth inhibition after 72 hours of drug exposure, SRB, non-tumoral cells): > 100 µM; IC50 (MCF-7 cells; [5]): > 100 µM; IC50 (MDA-MB-231 cells; [5]): 41.7 ± 7.4 µM
5 | C=CCc1ccc(O)c(O)c1 [Compound 3, 4-allylbenzene-1,2-diol] | > 100 | 98.4 ± 11.6 | 40.2 ± 6.9 | toxicity towards dermal human fibroblast (DHF cells) [1]: without toxicity
6 | C=CCc1cc(O)c(O)cc1[N+](=O)[O-] [Compound 2, 4-allyl-5-nitrobenzene-1,2-diol] | > 100 | 55 ± 7.11 | 37.5 ± 2.65 | 
7 | CC(=O)OCCCc1cc(O)c(O)cc1[N+](=O)[O-] [Compound 11, 3-(4,5-dihydroxy-2-nitrophenyl)propyl acetate] | > 100 | 63.8 ± 5.5 | 27.1 ± 4.4 | 
8 | COc1cccc2c1C(=O)c1c(O)c3c(c(O)c1C2=O)C[C@@](O)(C(C)=O)C[C@@H]3O[C@H]1C[C@H](N)[C@H](O)[C@H](C)O1 [Daunorubicin, reference compound] | 14.3 ± 1.85 | 0.19 ± 0.01 | 0.38 ± 0.06 | 
9 | CC(O)Cc1cc(O)c(O)cc1[N+](=O)[O-] (centres unmarked) [Compound 9, 4-(2-hydroxypropyl)-5-nitrobenzene-1,2-diol] | > 100 | > 100 | > 100 | 
10 | CC(=O)OCCCc1ccc(OC(C)=O)c(OC(C)=O)c1 [Compound 6, 4-[3-(acetyloxy)propyl]-1,2-phenylene diacetate] | > 100 | 97.8 ± 12.4 | 5.9 ± 0.8 | 
11 | OCCCc1ccc(O)c(O)c1 [Compound 5, 4-(3-hydroxypropyl)benzene-1,2-diol] | > 100 | > 100 | 54.3 ± 4.1 | 
12 | CC(=O)OCCCc1cc(OC(C)=O)c(OC(C)=O)cc1[N+](=O)[O-] [Compound 10, 4-[3-(acetyloxy)propyl]-5-nitro-1,2-phenylene diacetate] | > 100 | 51.3 ± 2.1 | 33.8 ± 4.9 | 
